# From PMC4106346, “The Oligomeric States of the Purified Sigma-1 Receptor Are Stabilized by Ligands” (The Journal of Biological Chemistry, 2014)
# pKd: −log10 of the molar value. Structures can show the parent of a compound that is named as a salt.
# How the values were obtained:
# [1] = molecular target: T1, sigma-1 receptor (S1R) (Cavia porcellus, UniProt Q60492); test: titration by ligand stabilization of the oligomer, analytical SEC with tryptophan fluorescence; format: binding; set-up: gene SIGMAR1
# T1 sequence (Q60492 whole entry): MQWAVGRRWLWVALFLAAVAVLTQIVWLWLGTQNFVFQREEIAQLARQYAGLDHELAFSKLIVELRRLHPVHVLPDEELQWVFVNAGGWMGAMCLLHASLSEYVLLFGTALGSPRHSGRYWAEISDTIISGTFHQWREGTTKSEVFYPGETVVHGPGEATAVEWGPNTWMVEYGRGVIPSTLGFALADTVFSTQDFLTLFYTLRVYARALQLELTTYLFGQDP
# [2] = molecular target: T1, sigma-1 receptor (S1R); test: ligand stabilization of the purified oligomer, analytical SEC; format: binding; set-up: gene SIGMAR1; MBP-4A-S1R, purified oligomer (peak 1)
# [3] = molecular target: T2, sigma-1 receptor (S1R) (Cavia porcellus, UniProt Q60492, H97A); test: radioligand filtration binding, […] (+)-[3H]pentazocine
# T2 construct: gene SIGMAR1; MBP-4A-S1R
# T2 sequence (Q60492 whole entry H97A): as the sequence (Q60492 whole entry) above, with H97A counted along it
# [4] = molecular target: T1, sigma-1 receptor (S1R); test: ligand stabilization of the purified oligomer at […] °C, analytical SEC; format: binding; set-up: gene SIGMAR1; MBP-4A-S1R, purified oligomer (peak 1)
smiles,measurement,setting,value
"CN(C)CCN(C)CCc1ccc(Cl)c(Cl)c1 [BD-1047, N-[2-(3,4-dichlorophenyl)ethyl]-N-methyl-2-(dimethylamino)ethylamine dihydrobromide]",pKd,[1],~8.15
CCCCCCCCCCCCC/C=C/[C@@H](O)[C@@H](N)CO [sphingosine],"ligand stabilization of the purified oligomer, analytical SEC",[2],the natural membrane lipid sphingosine gave a stabilizing interaction that was close to that of many of the synthetic ligands
CC(C)=CCN1CC[C@]2(C)c3cc(O)ccc3C[C@H]1[C@H]2C [(+)-pentazocine],% of nonmutated binding,[3],~ 50 % of nonmutated binding
"c1ccc(CCCCN2CCC(c3ccccc3)CC2)cc1 [4-PPBP, 4-phenyl-1-(4-phenylbutyl)piperidine maleate]","ligand stabilization of the purified oligomer at 37 °C, analytical SEC",[4],"Tight-binding ligands 4-PPBP, BD-1047 and others stabilized the oligomeric states"
